Data set [1] can be described thus: in vitro. The following applies: human, nci-h295r cells. The source says: We tested the efficiency of the three ligands to elicit a physiological response on steroidogenic CYP activities in cells (Fig. 5A, see Supplementary Methods, Supplementary Fig. 14 and Supplementary Table 4 for all data and number of biological replicates). The 3 tested ligands are not known to interact directly with CYP17, CYP19 or CYP21, albeit rifampicin and [compound left out] are known to interact with liver CYPs like CYP2B6[27] and CYP3A4[28]. Using a human adrenocortical cell line (NCI-H295R) we tested the effect of ligands on CYP17A1 and CYP21A2[59],[60] activities at 10 and 100 μM concentrations (Fig. 5A). Using radiolabeled substrates, we were able to quantify the steroid hormone production of CYP17A1 and CYP21A2 and its remodeling by POR ligands (see Supplementary Methods for details). […]. Rifampicin caused no significant effect on CYP17A1 activity, but reduced CYP21A2 activity at 100 μM (73 ± 4% of control; see Fig. 5A and Supplementary Fig. 14). […]. […]. […] (91 ± 12% of control). Specific inhibition of CY Fig. 5 Biased metabolism: small-molecule ligands bias steroidogenic CYP-activities in human cells and microsomes. A A human adrenocortical cell line (NCI-H295R) was used to assess the effect of small-molecule ligands on steroidogenic CYP17A1 and CYP21A2 hydroxylase activity, and CYP17A1 lyase activity, using radiolabeled substrates (see Supplementary Methods and Supplementary Table 4). Cell viability was assessed based on MTT reduction. […]. The cells display increased MTT reduction indicating increased reductase activity. No significant effects on CYP17A1 activities are observed. [compound left out] causes a significance increase in CYP17A1 lyase and less significant towards 17-OHase and 21A2 activities, while MTT reduction decreases slightly. [compound left out] causes inhibition of both CYP17A1 and CYP21A2 activities. B Abiraterone was used as a control inhibitor of CYP17A1 and CYP21A2 in H295R cells. C The effect of ligands on CYP19A1 activity was assessed on microsomes from a human choriocarcinoma cell line (JEG3). […]. A, C Error bars represent mean ± SD of 3–4 biological replicates normalized to DMSO controls with propagated error. See Supplementary Fig. 14 for raw data and Supplementary Table 4 for exact value of n for each experimental condition. Note, overlapping data points appear shaded. Level of significance is determined by one-way ANOVA and Tukey’s HSD test correcting for multiple comparisons (*p < 0.05; **p < 0.01; ***p < 0.005; see Supplementary Methods for details). Source data are provided as a Source Data file.

Data set [2] deals with T1, SbPOR2b (Sorghum bicolor, UniProt C5YJG8).
T1 construct: gene CPR; full-length, expressed in E. coli NiCo21(DE3) from pET52b, purified on 2',5'-ADP Sepharose and Q-sepharose, in DLPC/DLPG proteoliposomes; mutant in lipid nanodiscs
The experiment in a line: cytochrome c reduction, absorbance […] nm, Hill fit. In kind it is biochemical.

The target of data set [3] is T2, human POR (Homo sapiens, UniProt A0A9L9PY49).
T2 construct: full-length wild type in pET22b, expressed in E. coli BL21(DE3); bacterial membranes reconstituted in DLPC/DLPG liposomes without further purification, or used as microsomes
T2 sequence (A0A9L9PY49 1-680): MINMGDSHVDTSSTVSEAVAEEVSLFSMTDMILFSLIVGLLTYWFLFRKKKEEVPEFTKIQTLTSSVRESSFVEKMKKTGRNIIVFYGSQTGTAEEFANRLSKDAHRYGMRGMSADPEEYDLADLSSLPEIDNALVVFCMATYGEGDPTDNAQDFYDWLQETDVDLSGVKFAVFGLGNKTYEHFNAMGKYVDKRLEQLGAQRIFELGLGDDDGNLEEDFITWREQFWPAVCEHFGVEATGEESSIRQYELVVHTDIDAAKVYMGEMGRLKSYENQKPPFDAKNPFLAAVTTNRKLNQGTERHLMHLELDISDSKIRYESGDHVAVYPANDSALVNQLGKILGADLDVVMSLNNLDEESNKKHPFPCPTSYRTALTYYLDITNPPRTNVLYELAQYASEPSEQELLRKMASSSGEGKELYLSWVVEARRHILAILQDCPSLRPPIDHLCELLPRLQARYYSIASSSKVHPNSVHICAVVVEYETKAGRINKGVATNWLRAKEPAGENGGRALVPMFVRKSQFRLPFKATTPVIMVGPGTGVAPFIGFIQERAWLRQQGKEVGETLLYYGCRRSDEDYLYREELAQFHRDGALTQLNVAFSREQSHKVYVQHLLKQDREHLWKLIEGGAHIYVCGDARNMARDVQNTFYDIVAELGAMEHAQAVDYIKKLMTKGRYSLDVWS
As to the kind of experiment: cytochrome c reduction, absorbance […] nm. In kind it is biochemical. As to conditions: read-out: % of control at 100 μM.

In data set [4] the target is T2, human POR. As to the kind of experiment: biochemical. The following applies: Liposomes=Liposomes, electron acceptor as given. The arrangement: POR proteoliposome reduction of cytochrome c, MTT (absorbance) or resazurin (fluorescence), normalized to DMSO control. The procedure:
(§1) Using Cytc, MTT or RS as electron acceptors the change in absorbance (550 nm for Cytc and 610 nm for MTT) or emission (570 nm excitation, 585 nm emission for RS) was monitored as a function of time. Cytc and RS concentrations were both close to KM of the given electron acceptor, while MTT and NADPH were in excess amounts. Concentrations were 40 μM Cytc, 10 μM RS, 500 μM MTT and 100 μM NADPH unless otherwise stated. POR activity was extracted from the slope of the linear region of each trace. Michaelis–Menten kinetics and IC50 curves were performed under identical conditions using relevant substrate and ligand concentrations. All measurements were repeated at least three times and subsequently normalized to DMSO control measurements. […] Fluorescence intensities of resorufin in the presence of rifampicin were corrected according to a linear calibration curve (see Supplementary Fig. 7). Given that point-mutations in human POR can lead to altered specificity towards CYP isoforms[4],[19], we tested whether small-molecule ligands can bias the specificity of human POR to reduce diverse electron acceptors. […] (MTT)[32] (Fig. 2A). Each of the assays relies on spectral changes of the electron acceptor upon reduction by POR and thus directly reports on POR activity towards reducing the specific redox partner (see Supplementary Methods for details). Being comparative these assays exclude artefacts that may originate from potential FMN loss. […] POR plays an omnipotent role as an electron donor to microsomal CYPs in all eukaryotes and serves as a key metabolic hub in plants as well as humans. To test whether the effect of small-molecule ligand binding to POR is an omnipotent phenomenon underlying the regulation of POR in organisms from different kingdoms, we performed binding assays based on intrinsic fluorescence quenching and dose-response experiments on POR2b from the crop plant Sorghum bicolor (SbPOR2b) in proteoliposomes (Fig. 3A, B, Supplementary Fig. 6 and Supplementary Table 3).

Data set [5] concerns the target T1, SbPOR2b. The experiment in a line: biochemical. The following applies: Liposomes=Liposomes, electron acceptor as given. Further details: POR proteoliposome reduction of cytochrome c, MTT (absorbance) or resazurin (fluorescence), normalized to DMSO control. Here is the method:
as §1

For data set [6], the target named is T1, SbPOR2b. As to the kind of experiment: resazurin reduction, fluorescence, Hill fit. In kind it is biochemical. An excerpt:
resazurin reduction, fluorescence, Hill fit on SbPOR2b | activity decrease in Cytc reduction and increase in RS reduction
(In general: Alamar Blue is a resazurin reagent that responds to reducing activity.)

In data set [7] the target is T1, SbPOR2b. The experiment in a line: cytochrome c reduction, absorbance […] nm, Hill fit. In kind it is biochemical. This is another data set of the same source.
Data set [8] deals with T1, SbPOR2b. As to the kind of experiment: resazurin reduction, fluorescence, Hill fit. In kind it is biochemical. An excerpt: resazurin reduction, fluorescence, Hill fit on SbPOR2b | while marginally reducing the capacity in the RS assay
The source holds these as a separate data set.

Setting [9] is: Cytochrome C=MTT, read-out: % of control remaining.
The mark [10] stands for this setting: Cytochrome C=Resazurin, read-out: % of control remaining.
The mark [11] stands for this setting: Cytochrome C=Cytochrome C, read-out: % of control remaining.
[12] abbreviates: read-out: % of control remaining, Cytochrome C=Cytochrome C.
[13] abbreviates: read-out: % of control remaining, Cytochrome C=MTT.
The mark [14] stands for this setting: read-out: % of control remaining, Cytochrome C=Resazurin.
The mark [15] stands for this setting: Assay=MTT cell viability, DMSO (v/v %)=1, read-out: % viability.

Read-outs that look alike come from different tables or passages of the source.

T1 sequence (C5YJG8 whole entry): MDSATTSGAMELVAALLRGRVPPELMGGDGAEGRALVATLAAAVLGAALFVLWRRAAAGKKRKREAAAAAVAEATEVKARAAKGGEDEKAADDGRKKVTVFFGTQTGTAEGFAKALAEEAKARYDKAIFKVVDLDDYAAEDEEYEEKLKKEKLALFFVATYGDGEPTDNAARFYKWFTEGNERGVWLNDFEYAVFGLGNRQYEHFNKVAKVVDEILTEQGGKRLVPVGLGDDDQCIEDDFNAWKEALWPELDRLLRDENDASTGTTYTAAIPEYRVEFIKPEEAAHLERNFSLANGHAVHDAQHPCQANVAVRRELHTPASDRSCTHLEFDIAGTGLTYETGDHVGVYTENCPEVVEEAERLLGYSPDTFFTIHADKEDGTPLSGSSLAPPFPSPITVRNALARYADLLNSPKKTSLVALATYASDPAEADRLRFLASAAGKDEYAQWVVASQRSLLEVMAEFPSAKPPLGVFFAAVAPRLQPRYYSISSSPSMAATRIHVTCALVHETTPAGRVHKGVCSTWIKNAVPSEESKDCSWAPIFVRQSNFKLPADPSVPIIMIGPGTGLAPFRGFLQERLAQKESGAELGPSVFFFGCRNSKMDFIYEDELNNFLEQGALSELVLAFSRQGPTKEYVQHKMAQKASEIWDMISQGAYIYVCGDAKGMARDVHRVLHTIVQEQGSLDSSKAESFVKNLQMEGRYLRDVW

In general, viability refers to a read-out of living cells in per cent, often relative to untreated cells. By EC50 is commonly meant the concentration at which the effect is half-maximal. Regarding `N#C[C@@H](O[C@@H]1O[C@H](CO)[C@@H](O)[C@H](O)[C@H]1O)c1ccc(O)cc1` [dhurrin], the viability at 10 µM in data set [1] was 93.6%. For the same compound, the viability at 100 µM in data set [1] amounted to 88.1%. Moreover, the EC50 in data set [2] turned out to be 21 ± 12 µM. Also, the remaining activity at 100 µM in data set [3] is 48 ± 9%; in data set [4] (setting [9]), 95.9%; in data set [4] (setting [10]) it was 81.7%; in data set [5] (setting [11]), 156%; in data set [5] (setting [10]), 236%. Further, the remaining activity at 10 µM came out at 87.7% in data set [4] (setting [9]), 105% in data set [4] (setting [10]) and 128% in data set [5] (setting [11]).
On to `CCCCc1oc2ccccc2c1C(=O)c1cc(I)c(OCCN(CC)CC)c(I)c1` [Amiodarone], for which the remaining activity at 10 µM in data set [4] (setting [12]) turned out to be 95.6%; in data set [4] (setting [13]) it was 85.1%; in data set [4] (setting [14]), 102%. For the same compound, the figures for the remaining activity at 100 µM in data set [4] (setting [12]) and in data set [4] (setting [14]) were 106% and 102%, respectively.
As to `CN/C(=N\CCSCc1nc[nH]c1C)NC#N` [Cimetidine], the figures for the remaining activity at 10 µM in data set [4] (setting [12]), in data set [4] (setting [13]) and in data set [4] (setting [14]) were 110%, 96.9% and 107%, respectively. The remaining activity at 100 µM in data set [4] (setting [12]) was determined as 117%; in data set [4] (setting [14]), 112%.
One may read the IC50 as the concentration that gives 50% inhibition. Read a low IC50 as greater potency in that assay. For the compound `O=P1(N(CCCl)CCCl)NCCCO1` (centres unmarked) [cyclophosphamide], in data set [1], the viability at 10 µM was found to be 87.9% and the viability at 100 µM stood at 81.4%. For the same compound, the EC50 in data set [6] was 159 ± 136 µM. This compound gave an IC50 in data set [7] of 228 ± 208 µM.
As to `CC(C)c1nc(CN(C)C(=O)N[C@H](C(=O)N[C@@H](Cc2ccccc2)C[C@H](O)[C@H](Cc2ccccc2)NC(=O)OCc2cncs2)C(C)C)cs1` [Ritonavir], the figures for the remaining activity at 10 µM in data set [4] (setting [12]), in data set [4] (setting [13]) and in data set [4] (setting [14]) were 108%, 88.4% and 96.9%, respectively. Besides, the results for the remaining activity at 100 µM in data set [4] (setting [12]) and in data set [4] (setting [14]) were 118% and 95.9%, respectively.
In the case of `CC(=O)CC(c1ccccc1)c1c(O)c2ccccc2oc1=O` (centres unmarked) [Warfarin], the figures for the remaining activity at 10 µM in data set [4] (setting [12]), in data set [4] (setting [13]) and in data set [4] (setting [14]) were 102%, 118% and 96.2%, respectively.
Take `CO[C@H]1/C=C/O[C@@]2(C)Oc3c(C)c(O)c4c(O)c(c(/C=N/N5CCN(C)CC5)c(O)c4c3C2=O)NC(=O)/C(C)=C\C=C\[C@H](C)[C@H](O)[C@@H](C)[C@@H](O)[C@@H](C)[C@H](OC(C)=O)[C@@H]1C` [rifampicin]: in data set [8], the IC50 is 18 ± 9 µM. The viability at 10 µM in data set [1] (setting [15]) amounted to 94%. Further, the viability at 100 µM in data set [1] (setting [15]) is 116%. Further, a half-maximal response in data set [2] (EC50) required 9 ± 8 µM. Also, the remaining activity at 100 µM in data set [3] came out at 14 ± 5%; in data set [4] (setting [13]), 122%; in data set [4] (setting [14]), 312%; in data set [5] (setting [12]), 179%; in data set [5] (setting [14]), 85%. For the same compound, the remaining activity at 10 µM in data set [4] (setting [12]) was determined as 113%; in data set [4] (setting [13]) it was 95.7%; in data set [4] (setting [14]) it was 132%; in data set [5] (setting [12]) it was 140%; in data set [5] (setting [14]) it was 102%.
On to `CO[C@@]12[C@H](COC(N)=O)C3=C(C(=O)C(C)=C(N)C3=O)N1C[C@@H]1N[C@@H]12` [Mitomycin C], for which the remaining activity at 10 µM in data set [4] (setting [12]) came out at 101%; in data set [4] (setting [13]) it was 110%; in data set [4] (setting [14]), 53.7%.

Values taken from PMC8050233, “Biased cytochrome P450-mediated metabolism via small-molecule ligands binding P450 oxidoreductase” (Nature Communications, 2021).
